System: CCL2
Test: CCL2 expression in cerebral cortex after TBI (qPCR)
Type: in vivo, mouse
Details: 25 mg/kg salsalate
Protocol: Drug preparation and administration: CGP3466B (Sigma-Aldrich, SML1941) was dissolved in DMSO and then diluted in sterile saline. The final working stock was 0.0014 mg/ml for administering the 0.014 mg/kg dose. Intraperitoneal administration of CGP3466B was initiated 15 min or 24 h after injury, and tissues were harvested 6 h (for SNO-GAPDH, SNO-SIRT1 measurement) or 2 weeks (for ac-tau measurement) later, respectively. Salsalate (AdipoGen, AG-CR1-3574) was dissolved in DMSO and then diluted in sterile PBS. The final working stocks were as follows: 2.5 mg/ml (25 mg/kg dose), 1 mg/ml (10 mg/kg dose), 0.5 mg/ml (5 mg/kg dose). Daily intraperitoneal administration of salsalate was initiated 24 hr after injury and continued throughout behavioral testing. P7C3-A20 and FK866 (Sigma-Aldrich, F8557) were first dissolved in 1 vol of DMSO, followed by addition of 4 vol of Kolliphor and vigorously vortexing. The solution was then diluted with 30 vol of filtered 5% dextrose (pH 7.0). EX527 (Selleckchem, S1541) was dissolved in 1% DMSO+30% polyethylene glycol+1% Tween 80. Daily intraperitoneal administration of P7C3-A20 was initiated 24 hr after poly-traumatic brain injury. EX527 (10 mg/kg) was administer once a day and FK866 was treated twice per day, with the first injection given at the same time as P7C3-A20 (20 mg/kg) and the second injection given 6 h later (LoCoco et al., 2017 eLife). […]

O=C(Oc1ccccc1C(=O)O)c1ccccc1O [salsalate]
TBI-induced increase of CCL2 in cerebral cortex: this increase is not attenuated

Reference: patent US20240201204A1, “Biomarker and Druggable Target of Neurodegeneration” (University Hospitals Cleveland Medical Center, priority 2020, published 2024)
